Paper PMC3705412, “PTP1B Inhibitory and Anti-Inflammatory Effects of Secondary Metabolites Isolated from the Marine-Derived Fungus Penicillium sp. JF-55” (Marine Drugs, 2013)
pIC50: −log10 of the molar value.

Experiments:
Type in all cases: cell-based, murine (C57BL/6 mice)
COX-2 = experiment: Western blotting of COX-2 protein expression in LPS-stimulated macrophages; conditions: pre-treatment 12 h, LPS 1 μg/mL 18 h
Protocol: (§1) Figure 3 The effects of penstyrylpyrone (1) (A), anhydrofulvic acid (2) (B), and citromycetin (3) (C) on the protein expression of iNOS and COX-2 in murine peritoneal macrophages stimulated with LPS. Murine peritoneal macrophages were pre-treated for 12 h at the indicated compound concentrations and stimulated for 18 h with LPS (1 μg/mL). Western blotting analysis was performed, and the representative blots of three independent experiments are shown.
(§2) C57BL/6 mice were purchased from Orient Bio Co. (Sungnam, Kyung-Kido, Korea). TG-elicited peritoneal macrophages were harvested four days after intraperitoneal (i.p.) injection of 3 mL of TG [37]. Peritoneal lavage was performed using 8 mL of Hanks’ Balanced Salt Solution containing 10 U/mL heparin. The cells were distributed in Roswell Park Memorial Institute medium (RPMI) supplemented with 10% heat-inactivated FBS, in 6-well tissue culture plates (5 × 10^6 cells/mL).
(§3) Western blotting analysis was performed by lysing the cells in 20 mM Tris-HCl buffer (pH 7.4) containing a protease inhibitor mixture (0.1 mM PMSF, 5 mg/mL aprotinin, 5 mg/mL pepstatin A, and 1 mg/mL chymostatin). The protein concentration was determined using a Lowry protein assay kit (P5626; Sigma Chemical Co., St. Louis, MO, USA). […]

HO-1 = experiment: Western blotting of HO-1 protein expression in macrophages
Protocol: Figure 6 The effects of penstyrylpyrone (1) on the protein expression of HO-1 in murine peritoneal macrophages. Murine peritoneal macrophages were incubated for 12 h with the indicated concentrations of penstyrylpyrone (1). […] Representative blots of three independent experiments are shown. The data represent the mean ± SD of three experiments. * p < 0.05 compared with the control group.
as §2
Western blotting analysis was performed by lysing the cells in 20 mM Tris-HCl buffer (pH 7.4) containing a protease inhibitor mixture (0.1 mM PMSF, 5 mg/mL aprotinin, 5 mg/mL pepstatin A, and 1 mg/mL chymostatin). The protein concentration was determined using a Lowry protein assay kit (P5626; Sigma Chemical Co., St. Louis, MO, USA). An equal amount of protein for each sample was resolved using 12% sodium dodecyl sulfate-polyacrylamide gel electrophoresis (SDS-PAGE) and then electrophoretically transferred onto a Hybond enhanced chemiluminescence (ECL) nitrocellulose membrane (Bio-Rad, Hercules, CA, USA). The membrane was blocked with 5% skimmed milk and sequentially incubated with primary antibody (Santa Cruz Biotechnology, Santa Cruz, CA, USA) and horseradish peroxidase-conjugated secondary antibody followed by ECL detection (Amersham Pharmacia Biotech, Piscataway, NJ, USA).

NF-κB = experiment: DNA-binding activity of NF-κB in nuclear extracts (TransAM kit); conditions: pre-treatment 12 h, LPS 1 μg/mL 1 h
Protocol: Figure 5 The effects of penstyrylpyrone (1) on the protein expression level of IκB-α phosphorylation, degradation of IκB-α (A), NF-κB translocation (B), and NF-κB DNA binding activity (C) in murine peritoneal macrophages. Murine peritoneal macrophages were pre-treated for 12 h at the indicated concentrations of penstyrylpyrone (1), and stimulated for 1 h with LPS (1 μg/mL). Western blotting analysis of IκB-α and p-IκB-α in the cytoplasm and NF-κB in the nucleus (A, B) were performed. A commercially available NF-κB ELISA (Active Motif) was used to test the nuclear extracts and to determine the degree of NF-κB binding (C). The data represent the mean values ± SD of three experiments. *p < 0.05 compared with the group treated with LPS.
C57BL/6 mice were purchased from Orient Bio Co. (Sungnam, Kyung-Kido, Korea). […]
Murine peritoneal macrophages were homogenized (1:20, w:v) in PER-Mammalian Protein Extraction buffer (Pierce Biotechnology, Rockford, IL, USA) containing freshly added protease inhibitor cocktail I (EMD Biosciences, San Diego, CA, USA) and 1 mM phenylmethylsulfonyl fluoride (PMSF). […] The protein concentration was determined using the bicinchoninic acid (BCA) protein assay kit.
The DNA-binding activity of NF-κB in the nuclear extracts was measured using the TransAM kit (Active Motif, Carlsbad, CA, USA) according to the manufacturer’s instructions.

[1] = tested on: murine peritoneal macrophages; experiment: Cell viability assay (MTT); set-up: dose or concentration left out as unconfirmed
[2] = tested on: IL-1β production in murine peritoneal macrophages; experiment: IL-1β production in LPS-stimulated macrophages, ELISA; conditions: Mus musculus, Peritoneal macrophage; pre-treated 12 h, LPS 1 μg/mL 18 h
Protocol: (§4) C57BL/6 mice were purchased from Orient Bio Co. (Sungnam, Kyung-Kido, Korea). TG-elicited peritoneal macrophages were harvested four days after intraperitoneal (i.p.) injection of 3 mL of TG [37]. Peritoneal lavage was performed using 8 mL of Hanks’ Balanced Salt Solution containing 10 U/mL heparin. The cells were distributed in Roswell Park Memorial Institute medium (RPMI) supplemented with 10% heat-inactivated FBS, in 6-well tissue culture plates (5 × 10^6 cells/mL). The level of PGE2, TNF-α or IL-1β present in each sample was determined using a commercially available kit from R & D Systems. The assay was performed according to the manufacturer’s instructions. Briefly, murine peritoneal macrophages were cultured in 24-well plates, pre-incubated for 12 h with different concentrations of compounds 1–3, and then stimulated for 18 h with LPS. The cell culture supernatants were then immediately collected after treatment and centrifuged at 13,000× g for 2 min to remove particulate matter. The medium was added to a 96-well plate pre-coated with affinity-purified PGE2-specific polyclonal antibodies or the medium was added to a 96-well plate pre-coated with affinity-purified polyclonal antibodies that were specific to mouse TNF-α or IL-1β. An enzyme-linked polyclonal antibody specific for PGE2, mouse TNF-α or IL-1β was added to the wells for 20 h, followed by a final wash to remove any unbound antibody-enzyme reagent. A substrate solution was added, and the intensity of the color produced, which was measured at 450 nm (the correction wavelength was set at 540 nm or 570 nm), was proportional to the amount of PGE2, TNF-α or IL-1β present.

iNOS = experiment: Western blotting of iNOS protein expression in LPS-stimulated macrophages; conditions: pre-treatment 12 h, LPS 1 μg/mL 18 h
Protocol: as §1, §2, §3

[3] = tested on: TNF-α production in murine peritoneal macrophages; experiment: TNF-α production in LPS-stimulated macrophages, ELISA; conditions: Mus musculus, Peritoneal macrophage; pre-treated 12 h, LPS 1 μg/mL 18 h
Protocol: as §4

Compound: COc1cc(/C=C/c2ccccc2)oc(=O)c1C [Penstyrylpyrone (1), penstyrylpyrone]
- COX-2 expression (COX-2): decreased
- Time at which HO-1 protein expression began to increase (HO-1; 40 μM): 6 h
- Time of maximum level of HO-1 protein expression (HO-1; 40 μM): 18 h
- HO-1 protein expression (HO-1; 5–40 μM for 12 h): concentration-dependent increase
- Concentration giving a considerable increase in HO-1 expression (HO-1; 12 h): above 10 μM
- NF-κB DNA-binding activity (NF-κB): impaired this activity in a concentration-dependent manner
- Cytotoxicity (cell viability) [1]: non-cytotoxic
- pIC50 [2]: 4.87
- iNOS expression (iNOS): decreased
- pIC50 [3]: 4.74
